Source: patent US20140335251A1, “ANTIFUNGAL FLAVORING COMPOSITIONS” (FIRMENICH SA, priority 2011, published 2014)

Experiments:
Format in all cases: cell-based
[1] = tested on: Pichia anomala (DSM 70783); assay: Growth inhibition in sucrose solution pH 5, OD after 21 days; conditions: for Antifungal activity: pH 5, 21 days at 25° C.; for concentration at which active as single ingredient: sucrose solution pH 5, 21 days, tested at 25, 50, 75 ppm
Text: (§1) The term “effective” when used to describe the capacity of a composition to inhibit growth of a yeast or mould strain is defined as the ability of such composition to inhibit growth of the strain in a growth medium consisting of a 105 g/L sucrose solution with an initial inoculum of 10^2-10^3 cfu/mL of such yeast or mould strain, so that the average optical density of the growth medium, as measured at 380 nm for yeast strains and at 500 nm for mould strains, is maintained below 0.2 after 21 days of culture at 25° C. under aerobic conditions. The growth medium of which the optical density is measured consists of the growth medium as it is at the end of the 21 days growth period.
(§2) For the purposes of the present invention, growth inhibition activity of a given compound against one of the above mentioned strains is measured as follows:
(§3) A 105 g/L solution of sucrose in water is prepared. Preferably, the sucrose solution is at pH 3±0.2 or at pH 5±0.2, in which case the sucrose solution is more preferably autoclaved at 121° C. for 15 minutes and the pH is re-checked to ensure it remains within the required range.
(§4) Test samples are prepared in a microtiter plate comprising 100 μL of one of the sucrose solutions prepared above, together with an initial inoculum of the fungal strain of which growth is intended to be inhibited, so as to achieve a microbial level comprised between 10^2 and 10^3 cfu/mL.
(§5) The composition of which the antifungal activity is intended to be evaluated is then added to the microtiter plate. Dilutions of the tested composition in each test sample are prepared to afford the desired final concentration. The microtiter plates are then stored in a standard 25° C. incubator under aerobic conditions.
(§6) The optical density (OD) of each sample is measured just after addition of the composition (control) and after 21 days of incubation. The OD is measured at 380 nm for yeast strains and at 500 nm for mould strains.
(§7) All tests are done in triplicate to ensure statistical relevance of the results obtained.
(§8) Growth inhibition of a particular strain by an ingredient at a particular concentration is given if the OD measured after 21 days of culture in these conditions is below 0.2.
(§9) A 105 g/L solution of sucrose in water at pH 5±0.2 was prepared. The sucrose solution was autoclaved at 121° C. for 15 minutes and the pH was re-checked to ensure it remained within the range.
(§10) Test samples were then prepared in microtiter plates. An amount of 100 μL of sucrose solution prepared above was mixed with an inoculum of 20 μL of one fungal strain, so as to achieve a microbial level comprised between 10^2 and 10^3 cfu/mL.
(§11) Composition A was then added to the microtiter plate. Dilutions were prepared in the microtiter plate for each mixture of sucrose solution and inoculum to afford final concentrations of 75 ppm and 125 ppm of Composition A. One well for each mixture of sucrose solution and inoculum was kept free of Composition A, to serve as a control.
(§12) The microtiter plates were then stored in a standard 25° C. incubator under aerobic conditions.
(§13) The optical density (OD) of each sample was measured after 21 days of incubation using a Bio-Tek Synergy™ HT Multi-Mode Microplate Reader (from Labtech International, UK). The wavelength was set to 380 nm for yeast strains and to 500 nm for mould strains.
(§14) All tests were done in triplicate to ensure statistical relevance of the results obtained.
(§15) 2-Methylhexanoic acid, geranic acid and sorbic acid were separately tested for their antifungal properties using the method described in Example 1 for evaluation of Composition A, except that dilutions were prepared in the microtiter plate for each mixture of sucrose solution and inoculum to afford final concentrations of 25 ppm, 50 ppm and 75 ppm of the tested ingredient. […]

[2] = tested on: Pichia membranaefaciens (DSM 70369); assay: as above; conditions: for Antifungal activity: pH 5, 21 days at 25° C.; for concentration at which active as single ingredient: sucrose solution pH 5, 21 days, tested at 25, 50, 75 ppm
Text: as §1, §2, §3, §4, §5, §6, §7, §8, §9, §10, §11, §12, §13, §14, §15

each of the tested fungi = assay: Growth inhibition, summary over all tested strains; conditions: even at 75 ppm; strains of Tables 3-4 or 9-10
Description: as §9, §10, §11, §12, §13, §14
2-Methylhexanoic acid, geranic acid and sorbic acid were separately tested for their antifungal properties using the method described in Example 1 for evaluation of Composition A, except that dilutions were prepared in the microtiter plate for each mixture of sucrose solution and inoculum to afford final concentrations of 25 ppm, 50 ppm and 75 ppm of the tested ingredient.
Composition B was then added to the microtiter plate.

[3] = tested on: Zygosaccharomyces bailii (DSM 70492); assay: Growth inhibition in sucrose solution pH 5, OD after 21 days; conditions: for Antifungal activity: pH 5, 21 days at 25° C., OD 380 nm
Text: The term “effective” when used to describe the capacity of a composition to inhibit growth of a yeast or mould strain is defined as the ability of such composition to inhibit growth of the strain in a growth medium consisting of a 105 g/L sucrose solution with an initial inoculum of 10^2-10^3 cfu/mL of such yeast or mould strain, so that the average optical density of the growth medium, as measured at 380 nm for yeast strains and at 500 nm for mould strains, is maintained below 0.2 after 21 days of culture at 25° C. under aerobic conditions. The growth medium of which the optical density is measured consists of the growth medium as it is at the end of the 21 days growth period. It therefore consists of the growth medium (sucrose solution at 105 g/L), together with the organisms which were able to grow during the 21 days culture period and the composition of the invention. For the purposes of the present invention, growth inhibition activity of a given compound against one of the above mentioned strains is measured as follows: A 105 g/L solution of sucrose in water is prepared. Preferably, the sucrose solution is at pH 3±0.2 or at pH 5±0.2, in which case the sucrose solution is more preferably autoclaved at 121° C. for 15 minutes and the pH is re-checked to ensure it remains within the required range. Test samples are prepared in a microtiter plate comprising 100 μL of one of the sucrose solutions prepared above, together with an initial inoculum of the fungal strain of which growth is intended to be inhibited, so as to achieve a microbial level comprised between 10^2 and 10^3 cfu/mL. The composition of which the antifungal activity is intended to be evaluated is then added to the microtiter plate. […] The microtiter plates are then stored in a standard 25° C. incubator under aerobic conditions. The optical density (OD) of each sample is measured just after addition of the composition (control) and after 21 days of incubation. The OD is measured at 380 nm for yeast strains and at 500 nm for mould strains. All tests are done in triplicate to ensure statistical relevance of the results obtained. Growth inhibition of a particular strain by an ingredient at a particular concentration is given if the OD measured after 21 days of culture in these conditions is below 0.2. A 105 g/L solution of sucrose in water at pH 5±0.2 was prepared. The sucrose solution was autoclaved at 121° C. for 15 minutes and the pH was re-checked to ensure it remained within the range. Test samples were then prepared in microtiter plates. […] Composition A was then added to the microtiter plate. […] One well for each mixture of sucrose solution and inoculum was kept free of Composition A, to serve as a control. The microtiter plates were then stored in a standard 25° C. incubator under aerobic conditions. The optical density (OD) of each sample was measured after 21 days of incubation using a Bio-Tek Synergy™ HT Multi-Mode Microplate Reader (from Labtech International, UK). The wavelength was set to 380 nm for yeast strains and to 500 nm for mould strains. All tests were done in triplicate to ensure statistical relevance of the results obtained.

[4] = 75 ppm, OD 380 nm (Examples 3-4)

Compound: CCCCC(C)C(=O)O (centres unmarked) [2-Methylhexanoic acid]
- Antifungal activity ([1]; 25 ppm, OD 380 nm): I (Letter I (for Inactive) is used when the measured OD was of at least 0.2)
- Antifungal activity ([1]; 50 ppm, OD 380 nm): I (Letter I (for Inactive) is used when the measured OD was of at least 0.2)
- Antifungal activity ([1]; 75 ppm, OD 380 nm): I (Letter I (for Inactive) is used when the measured OD was of at least 0.2)
- Antifungal activity ([2]; 25 ppm, OD 380 nm): I (Letter I (for Inactive) is used when the measured OD was of at least 0.2)
- Antifungal activity ([2]; 50 ppm, OD 380 nm): I (Letter I (for Inactive) is used when the measured OD was of at least 0.2)
- Antifungal activity ([2]; 75 ppm, OD 380 nm): I (Letter I (for Inactive) is used when the measured OD was of at least 0.2)
- antifungal activity as single ingredient against tested strains (each of the tested fungi): inactive
- Antifungal activity ([3]; 25 ppm): I (Letter I (for Inactive) is used when the measured OD was of at least 0.2)
- Antifungal activity ([3]; 50 ppm): I (Letter I (for Inactive) is used when the measured OD was of at least 0.2)
- Antifungal activity ([3]; 75 ppm): I (Letter I (for Inactive) is used when the measured OD was of at least 0.2)

Compound: CC(C)=CCC/C(C)=C/C(=O)O [Geranic acid]
- Antifungal activity ([1]; 25 ppm, OD 380 nm): I (Letter I (for Inactive) is used when the measured OD was of at least 0.2)
- Antifungal activity ([1]; 50 ppm, OD 380 nm): I (Letter I (for Inactive) is used when the measured OD was of at least 0.2)
- Antifungal activity ([1]; 75 ppm, OD 380 nm): I (Letter I (for Inactive) is used when the measured OD was of at least 0.2)
- Antifungal activity ([2]; 25 ppm, OD 380 nm): I (Letter I (for Inactive) is used when the measured OD was of at least 0.2)
- Antifungal activity ([2]; 50 ppm, OD 380 nm): I (Letter I (for Inactive) is used when the measured OD was of at least 0.2)
- Antifungal activity ([2]; 75 ppm, OD 380 nm): I (Letter I (for Inactive) is used when the measured OD was of at least 0.2)
- antifungal activity as single ingredient against tested strains (each of the tested fungi): inactive
- Antifungal activity ([3]; 25 ppm): I (Letter I (for Inactive) is used when the measured OD was of at least 0.2)
- Antifungal activity ([3]; 50 ppm): I (Letter I (for Inactive) is used when the measured OD was of at least 0.2)
- Antifungal activity ([3]; 75 ppm): I (Letter I (for Inactive) is used when the measured OD was of at least 0.2)

Compound: CCC(=O)O [Propanoic acid]
- Antifungal activity ([1]; 25 ppm, OD 380 nm (Example 4)): I (Letter I (for Inactive) is used when the measured OD was of at least 0.2)
- Antifungal activity ([1]; 50 ppm, OD 380 nm (Example 4)): I (Letter I (for Inactive) is used when the measured OD was of at least 0.2)
- Antifungal activity [1, 4]: I (Letter I (for Inactive) is used when the measured OD was of at least 0.2)
- Antifungal activity ([2]; 25 ppm, OD 380 nm (Example 4)): I (Letter I (for Inactive) is used when the measured OD was of at least 0.2)
- Antifungal activity ([2]; 50 ppm, OD 380 nm (Example 4)): I (Letter I (for Inactive) is used when the measured OD was of at least 0.2)
- Antifungal activity [2, 4]: I (Letter I (for Inactive) is used when the measured OD was of at least 0.2)
- antifungal activity as single ingredient against tested strains (each of the tested fungi): inactive

Compound: C/C=C/C=C/C(=O)O [Sorbic acid]
- Antifungal activity ([1]; 25 ppm, OD 380 nm): I (Letter I (for Inactive) is used when the measured OD was of at least 0.2)
- Antifungal activity ([1]; 50 ppm, OD 380 nm): A (Letter A (for Active) is indicated when the measured OD was below 0.2)
- Antifungal activity ([1]; 75 ppm, OD 380 nm): A (Letter A (for Active) is indicated when the measured OD was below 0.2)
- concentration at which active as single ingredient [1]: 50 ppm
- Antifungal activity ([2]; 25 ppm, OD 380 nm): I (Letter I (for Inactive) is used when the measured OD was of at least 0.2)
- Antifungal activity ([2]; 50 ppm, OD 380 nm): I (Letter I (for Inactive) is used when the measured OD was of at least 0.2)
- Antifungal activity ([2]; 75 ppm, OD 380 nm): A (Letter A (for Active) is indicated when the measured OD was below 0.2)
- concentration at which active as single ingredient [2]: 75 ppm
- Antifungal activity ([3]; 25 ppm): I (Letter I (for Inactive) is used when the measured OD was of at least 0.2)
- Antifungal activity ([3]; 50 ppm): I (Letter I (for Inactive) is used when the measured OD was of at least 0.2)
- Antifungal activity ([3]; 75 ppm): A (Letter A (for Active) is indicated when the measured OD was below 0.2)
- concentration at which active as single ingredient ([3]; sucrose solution pH 5, 21 days, tested at 25, 50, 75 ppm): 75 ppm

Compound: O=C(O)c1ccccc1 [benzoic acid]
- Antifungal activity ([1]; 25 ppm, OD 380 nm (Example 4)): I (Letter I (for Inactive) is used when the measured OD was of at least 0.2)
- Antifungal activity ([1]; 50 ppm, OD 380 nm (Example 4)): A (Letter A (for Active) is indicated when the measured OD was below 0.2)
- Antifungal activity [1, 4]: A (Letter A (for Active) is indicated when the measured OD was below 0.2)
- concentration at which active as single ingredient [1]: 50 ppm
- Antifungal activity ([2]; 25 ppm, OD 380 nm (Example 4)): I (Letter I (for Inactive) is used when the measured OD was of at least 0.2)
- Antifungal activity ([2]; 50 ppm, OD 380 nm (Example 4)): I (Letter I (for Inactive) is used when the measured OD was of at least 0.2)
- Antifungal activity [2, 4]: A (Letter A (for Active) is indicated when the measured OD was below 0.2)
- concentration at which active as single ingredient [2]: 75 ppm
